ChEMBL document CHEMBL1123236, “Cardiac glycosides. 7. Sugar stereochemistry and cardiac glycoside activity” (J Med Chem, 1986)

target: Sodium/potassium-transporting ATPase; test: Inhibition of hog kidney Na+, K+-dependent ATPase; type: protein-complex assay, Sus scrofa; conditions: read-out: I50

Row | Structure (SMILES) | IC50
1 | C[C@H]1O[C@@H](O[C@H]2CC[C@@]3(C)[C@H](CC[C@@H]4[C@@H]3CC[C@]3(C)[C@@H](C5=CC(=O)OC5)CC[C@]43O)C2)C[C@H](O)[C@@H]1O | 7.04 nM
2 | C[C@]12CC[C@H](O[C@@H]3O[C@@H](CO)[C@H](O)[C@@H](O)[C@H]3O)C[C@H]1CC[C@@H]1[C@@H]2CC[C@]2(C)[C@@H](C3=CC(=O)OC3)CC[C@]12O | 87 nM
3 | C[C@]12CC[C@H](O[C@H]3O[C@H](CO)[C@@H](O)[C@H](O)[C@H]3O)C[C@H]1CC[C@@H]1[C@@H]2CC[C@]2(C)[C@@H](C3=CC(=O)OC3)CC[C@]12O (stereo in doubt; 3c) | 129 nM
4 | C[C@]12CC[C@H](O[C@H]3O[C@H](CO)[C@@H](O)[C@H](O)[C@H]3O)C[C@H]1CC[C@@H]1[C@@H]2CC[C@]2(C)[C@@H](C3=CC(=O)OC3)CC[C@]12O (stereo in doubt; 3d) | 38.9 nM
5 | C[C@]12CC[C@H](O[C@H]3O[C@H](CO)[C@@H](O)[C@H](O)[C@H]3O)C[C@H]1CC[C@@H]1[C@@H]2CC[C@]2(C)[C@@H](C3=CC(=O)OC3)CC[C@]12O (stereo in doubt; 4a) | 60.3 nM
6 | C[C@]12CC[C@H](O[C@H]3O[C@H](CO)[C@@H](O)[C@H](O)[C@H]3O)C[C@H]1CC[C@@H]1[C@@H]2CC[C@]2(C)[C@@H](C3=CC(=O)OC3)CC[C@]12O (stereo in doubt; 4b) | 16 nM
7 | C[C@]12CC[C@H](O[C@H]3O[C@H](CO)[C@@H](O)[C@H](O)[C@H]3O)C[C@H]1CC[C@@H]1[C@@H]2CC[C@]2(C)[C@@H](C3=CC(=O)OC3)CC[C@]12O (stereo in doubt; 4c) | 93.3 nM
8 | C[C@]12CC[C@H](O[C@H]3O[C@H](CO)[C@@H](O)[C@H](O)[C@H]3O)C[C@H]1CC[C@@H]1[C@@H]2CC[C@]2(C)[C@@H](C3=CC(=O)OC3)CC[C@]12O (stereo in doubt; 4d) | 10.5 nM
9 | CC12CCC(O[C@H]3O[C@H](CO)[C@H](O)[C@H](O)[C@H]3O)CC1CCC1C2CC[C@]2(C)C(C3=CC(=O)OC3)CCC12O (stereo in doubt; form 1) | 64.5 nM
10 | C[C@@H]1O[C@@H](O[C@H]2CC[C@@]3(C)[C@H](CC[C@@H]4[C@@H]3CC[C@]3(C)[C@@H](C5=CC(=O)OC5)CC[C@]43O)C2)[C@H](O)[C@H](O)[C@H]1O (stereo in doubt; form 1) | 4.79 nM
11 | CC12CCC(O[C@H]3O[C@H](CO)[C@H](O)[C@H](O)[C@H]3O)CC1CCC1C2CC[C@]2(C)C(C3=CC(=O)OC3)CCC12O (stereo in doubt; form 2) | 17.8 nM
12 | C[C@@H]1O[C@@H](O[C@H]2CC[C@@]3(C)[C@H](CC[C@@H]4[C@@H]3CC[C@]3(C)[C@@H](C5=CC(=O)OC5)CC[C@]43O)C2)[C@H](O)[C@H](O)[C@H]1O (stereo in doubt; form 2) | 6.79 nM
13 | C[C@]12CC[C@H](O[C@@H]3O[C@@H](CO)[C@@H](O)[C@H](O)[C@@H]3O)C[C@H]1CC[C@@H]1[C@@H]2CC[C@]2(C)[C@@H](C3=CC(=O)OC3)CC[C@]12O (stereo in doubt; form 2) | 10.7 nM
